Earlier results, collected in PubChem BioAssay AID1259409 (Chemical Carcinogenesis Research Information System (CCRIS), 2018).
Values joined by “and” are separate entries in the source; they are usually repeats but may differ in a detail not shown here. Identical values can stand only once.

System: rodent chemically induced tumor inhibition, incidence and multiplicity
Experiment: CCRIS tumor inhibitor studies

For `O=c1cc(-c2ccccc2)oc2ccc3ccccc3c12`, the “tumour outcome (control, treated, inhibition, significance)” value (Carcinogen: 2-AMINO-1-METHYL-6-PHENYLIMIDAZO[4,5-B]PYRIDINE [105650-23-5], Dose [Inhibitor]: 1000 PPM IN DIET FOR 4 WK BEGINNING WK PRIOR TO FIRST CARCINOGEN DOSE (STUDY DURATION: 25 WK), Route [Inhibitor]: ORAL, Species: RAT, Strain/Sex: SPRAGUE-DAWLEY/FEMALE, Target Tissue: Type of Lesion: MAMMARY GLAND: FIBROADENOMA OR DUCTAL CARCINOMA, Dose [Carcinogen]: 85 MG/KG BW 2X/WK FOR 4 WK (STUDY DURATION: 25 WK), Promoter: NONE) is given as 67.7%, 12.5%, 82%, p<0.001, the “tumour outcome (control, treated, inhibition, significance)” value (Carcinogen: 7,12-DIMETHYLBENZ[A]ANTHRACENE [57-97-6], Dose [Inhibitor]: 500 PPM IN DIET FOR 10 WK BEGINNING 1 WK PRIOR TO FIRST CARCINOGEN DOSE (STUDY DURATION: 11 MONTHS), Route [Inhibitor]: ORAL, Species: FISH, Strain/Sex: RAINBOW TROUT/MALE, FEMALE, Target Tissue: Type of Lesion: LIVER: TUMOR, Dose [Carcinogen]: 800 PPM IN DIET FOR 9 WK (STUDY DURATION: 11 MONTHS), Promoter: NONE) is given as 4%, 7%, -75%, not significant and the “tumour outcome (control, treated, inhibition, significance)” value (Carcinogen: 7,12-DIMETHYLBENZ[A]ANTHRACENE [57-97-6], Dose [Inhibitor]: 500 PPM IN DIET FOR 10 WK BEGINNING 1 WK PRIOR TO FIRST CARCINOGEN DOSE (STUDY DURATION: 11 MONTHS), Route [Inhibitor]: ORAL, Species: FISH, Strain/Sex: RAINBOW TROUT/MALE, FEMALE, Target Tissue: Type of Lesion: STOMACH: TUMOR, Dose [Carcinogen]: 800 PPM IN DIET FOR 9 WK (STUDY DURATION: 11 MONTHS), Promoter: NONE) is given as 92%, 28%, 70%, p<0.001. For the same compound, the “tumour outcome (control, treated, inhibition, significance)” value (Carcinogen: 7,12-DIMETHYLBENZ[A]ANTHRACENE [57-97-6], Dose [Inhibitor]: 500 PPM IN DIET FOR 10 WK BEGINNING 1 WK PRIOR TO FIRST CARCINOGEN DOSE (STUDY DURATION: 11 MONTHS), Route [Inhibitor]: ORAL, Species: FISH, Strain/Sex: RAINBOW TROUT/MALE, FEMALE, Target Tissue: Type of Lesion: SWIM BLADDER: TUMOR, Dose [Carcinogen]: 800 PPM IN DIET FOR 9 WK (STUDY DURATION: 11 MONTHS), Promoter: NONE) was 46%, 27%, 41%, p<0.001, the “tumour outcome (control, treated, inhibition, significance)” value (Carcinogen: 7,12-DIMETHYLBENZ[A]ANTHRACENE, 57-97-6, Dose [Inhibitor]: 100 UG APPLIED ONCE 5 MIN BEFORE DMBA (STUDY DURATION: 28 WK), Route [Inhibitor]: DERMAL, Species: MOUSE, Strain/Sex: CD-1/FEMALE, Target Tissue: Type of Lesion: SKIN: PAPILLOMA, Dose [Carcinogen]: 2.56 UG APPLIED ONCE 5 MIN AFTER INHIBITOR, Promoter: 12-O-TETRADECANOYLPHORBOL-13-ACETATE, 16561-29-8) was 82%, 65%, 21%, not calculated and the “tumour outcome (control, treated, inhibition, significance)” value (Carcinogen: 7,12-DIMETHYLBENZ[A]ANTHRACENE, 57-97-6, Dose [Inhibitor]: 1000 UG APPLIED ONCE 5 MIN BEFORE DMBA (STUDY DURATION: 28 WK), Route [Inhibitor]: DERMAL, Species: MOUSE, Strain/Sex: CD-1/FEMALE, Target Tissue: Type of Lesion: SKIN: PAPILLOMA, Dose [Carcinogen]: 2.56 UG APPLIED ONCE 5 MIN AFTER INHIBITOR, Promoter: 12-O-TETRADECANOYLPHORBOL-13-ACETATE, 16561-29-8) was 82%, 60%, 27%, not calculated. The “tumour outcome (control, treated, inhibition, significance)” value (Carcinogen: DIETHYLNITROSAMINE, 55-18-5, Dose [Inhibitor]: 500 PPM IN DIET FOR 6 WK PRIOR TO CARCINOGEN DOSE (STUDY DURATION: 48 WK), Route [Inhibitor]: ORAL, Species: FISH, Strain/Sex: MT. SHASTA RAINBOW/MALE, FEMALE, Target Tissue: Type of Lesion: LIVER: HEPATOCELLULAR CARCINOMA AND HEPATOCHOLANGIOCELLULAR CARCINOMA, Dose [Carcinogen]: 250 PPM AQUEOUS SOLUTION FOR 24 HR, Promoter: NONE USED) was 105/131 (80%), 90/98 (92%), -15%, p=0.0102, the “tumour outcome (control, treated, inhibition, significance)” value (Carcinogen: N-NITROSOETHYLUREA, 759-73-9, Dose [Inhibitor]: 0, 150 MG/KG IN OLIVE OIL 48 HR PRIOR TO CARCINOGEN DOSE (STUDY DURATION: 8 WK), Route [Inhibitor]: INTRAPERITONEAL, Species: MOUSE, Strain/Sex: AKR/FEMALE, Target Tissue: Type of Lesion: LUNG: TUMOR, Dose [Carcinogen]: 8 MG/KG IN 0.22 MOLAR SODIUM CITRATE BUFFER 1/WK FOR 4 WK, Promoter: NONE USED) was 8/32 (25%), 8/35 (23%), 8%, not calculated and the “tumour outcome (control, treated, inhibition, significance)” value (Carcinogen: N-NITROSOETHYLUREA, 759-73-9, Dose [Inhibitor]: 0, 150 MG/KG IN OLIVE OIL 48 HR PRIOR TO CARCINOGEN DOSE (STUDY DURATION: 8 WK), Route [Inhibitor]: INTRAPERITONEAL, Species: MOUSE, Strain/Sex: C3H/HE/FEMALE, Target Tissue: Type of Lesion: LUNG: TUMOR, Dose [Carcinogen]: 8 MG/KG IN 0.22 MOLAR SODIUM CITRATE BUFFER 1/WK FOR 4 WK, Promoter: NONE USED) was 26/33 (79%), 25/29 (86%), -9%, not calculated. For the same compound, the “tumour outcome (control, treated, inhibition, significance)” value (Carcinogen: N-NITROSOETHYLUREA, 759-73-9, Dose [Inhibitor]: 0, 150 MG/KG IN OLIVE OIL 48 HR PRIOR TO CARCINOGEN DOSE (STUDY DURATION: 8 WK), Route [Inhibitor]: INTRAPERITONEAL, Species: MOUSE, Strain/Sex: C57BL/FEMALE, Target Tissue: Type of Lesion: LUNG: TUMOR, Dose [Carcinogen]: 8 MG/KG IN 0.22 MOLAR SODIUM CITRATE BUFFER 1/WK FOR 4 WK, Promoter: NONE USED) was 9/35 (26%), 17/29 (57%), -119%, not calculated, the “tumour outcome (control, treated, inhibition, significance)” value (Carcinogen: N-NITROSOETHYLUREA, 759-73-9, Dose [Inhibitor]: 0, 150 MG/KG IN OLIVE OIL 48 HR PRIOR TO CARCINOGEN DOSE (STUDY DURATION: 8 WK), Route [Inhibitor]: INTRAPERITONEAL, Species: MOUSE, Strain/Sex: DBA/FEMALE, Target Tissue: Type of Lesion: LUNG: TUMOR, Dose [Carcinogen]: 8 MG/KG IN 0.22 MOLAR SODIUM CITRATE BUFFER 1/WK FOR 4 WK, Promoter: NONE USED) was 12/34 (35%), 15/34 (44%), -26%, not calculated and the “tumour outcome (control, treated, inhibition, significance)” value (Carcinogen: N-NITROSOETHYLUREA, 759-73-9, Dose [Inhibitor]: 0, 150 MG/KG IN OLIVE OIL 48 HR PRIOR TO CARCINOGEN DOSE (STUDY DURATION: 8 WK), Route [Inhibitor]: INTRAPERITONEAL, Species: MOUSE, Strain/Sex: SWISS/FEMALE, Target Tissue: Type of Lesion: LUNG: TUMOR, Dose [Carcinogen]: 8 MG/KG IN 0.22 MOLAR SODIUM CITRATE BUFFER 1/WK FOR 4 WK, Promoter: NONE USED) was 26/27 (96%), 12/16 (75%), 22%, not calculated. For the same compound, the “tumour outcome (control, treated, inhibition, significance)” value (Dose [Inhibitor]: 0, 0.015% IN DIET FOR 9 WK BEGINNING 1 WK PRIOR TO AND CONTINUING DURING CARCINOGEN TREATMENT (STUDY DURATION: 42 WK), Route [Inhibitor]: ORAL, Species: RAT, Strain/Sex: F344/MALE, Target Tissue: Type of Lesion: LIVER: HEPATOMA, Dose [Carcinogen]: 25 UG 5 D/WK FOR 8 WK, Promoter: NONE USED) was 15/15 (100%), 4/16 (25%), 75%, not calculated and 15/15 (100%), 5/15 (31%), 69%, not calculated, the “tumour outcome (control, treated, inhibition, significance)” value (Dose [Inhibitor]: 0, 50 PPM IN DIET BEGINNING 8 WK PRIOR TO CARCINOGEN AND CONTINUING FOR 6 WK POST CARCINOGEN (STUDY DURATION: 68 WK), Route [Inhibitor]: ORAL, Species: FISH, Strain/Sex: RAINBOW TROUT, Target Tissue: Type of Lesion: LIVER: HEPATOCELLULAR CARCINOMA, Dose [Carcinogen]: 20 PPB IN DIET FOR 2 WK, Promoter: NONE USED) was 43/118 (36%), 20/117 (17%), 53%, p<0.05 and the “tumour outcome (control, treated, inhibition, significance)” value (Dose [Inhibitor]: 0, 500 PPM IN DIET BEGINNING 8 WK PRIOR TO CARCINOGEN AND CONTINUING FOR 6 WK POST CARCINOGEN (STUDY DURATION: 68 WK), Route [Inhibitor]: ORAL, Species: FISH, Strain/Sex: RAINBOW TROUT, Target Tissue: Type of Lesion: LIVER: HEPATOCELLULAR CARCINOMA, Dose [Carcinogen]: 20 PPB IN DIET FOR 2 WK, Promoter: NONE USED) was 43/118 (36%), 7/120 (6%), 84%, p<0.01. The outcome (Dose [Inhibitor]: 0.005% IN DIET BEGINNING 4 WK PRIOR TO CARCINOGEN DOSE AND CONTINUING FOR 4 ADDITIONAL WK CONCURRENTLY WITH CARCINOGEN D, Route [Inhibitor]: ORAL, Species: FISH, Strain/Sex: MT. SHASTA RAINBOW TROUT, Target Tissue: Type of Lesion: LIVER: CHOLANGIOCELLULAR CARCINOMA OR ADENOMA, Dose [Carcinogen]: 10 PPB IN DIET FOR 4 WK, Promoter: NONE USED) was 0/166, 1/177, 0%, the “tumour outcome (control, treated, inhibition, significance)” value (Dose [Inhibitor]: 0.005% IN DIET BEGINNING 4 WK PRIOR TO CARCINOGEN DOSE AND CONTINUING FOR 4 ADDITIONAL WK CONCURRENTLY WITH CARCINOGEN D, Route [Inhibitor]: ORAL, Species: FISH, Strain/Sex: MT. SHASTA RAINBOW TROUT, Target Tissue: Type of Lesion: LIVER: HEPATOCELLULAR CARCINOMA OR MIXED CARCINOMA OR HEPATOCELLULAR ADENOMA, Dose [Carcinogen]: 10 PPB IN DIET FOR 4 WK, Promoter: NONE USED) was 39/166 (23%), 7/177 (4%), 83%, p<0.01 and the “tumour outcome (control, treated, inhibition, significance)” value (Dose [Inhibitor]: 0.005% IN DIET FOR 8 WK (STUDY DURATION: 1 YR), Route [Inhibitor]: ORAL, Species: FISH, Strain/Sex: MT. SHASTA RAINBOW TROUT, Target Tissue: Type of Lesion: LIVER: CHOLANGIOCELLULAR CARCINOMA OR ADENOMA, Dose [Carcinogen]: 0.5 PPM AQUEOUS SOLUTION FOR 30 MIN EXPOSURE OF EMBRYOS 21 D AFTER FERTILIZATION, Promoter: NONE USED) was 8/182 (4%), 7/175 (4%), 0%, not calculated. The outcome (Dose [Inhibitor]: 0.05% IN DIET BEGINNING 4 WK PRIOR TO CARCINOGEN DOSE AND CONTINUING FOR 4 ADDITIONAL WK CONCURRENTLY WITH CARCINOGEN DO, Route [Inhibitor]: ORAL, Species: FISH, Strain/Sex: MT. SHASTA RAINBOW TROUT, Target Tissue: Type of Lesion: LIVER: CHOLANGIOCELLULAR CARCINOMA OR ADENOMA, Dose [Carcinogen]: 10 PPB IN DIET FOR 4 WK, Promoter: NONE USED) was 0/166 (0%), 0/172 (0%) and the “tumour outcome (control, treated, inhibition, significance)” value (Dose [Inhibitor]: 0.05% IN DIET BEGINNING 4 WK PRIOR TO CARCINOGEN DOSE AND CONTINUING FOR 4 ADDITIONAL WK CONCURRENTLY WITH CARCINOGEN DO, Route [Inhibitor]: ORAL, Species: FISH, Strain/Sex: MT. SHASTA RAINBOW TROUT, Target Tissue: Type of Lesion: LIVER: HEPATOCELLULAR CARCINOMA OR MIXED CARCINOMA OR HEPATOCELLULAR ADENOMA, Dose [Carcinogen]: 10 PPB IN DIET FOR 4 WK, Promoter: NONE USED) was 39/166 (23%), 1/172 (0.6%), 97%, p<0.01.
